≈ marks a conversion by molar mass, not a printed value. Where two headings read alike, the source gives them in different places. Residues, ends and D or L forms follow the SMILES beside them. No end group written: not given here. *: point of attachment. Fmoc = O=C(OCC1c2ccccc2-c2ccccc21)*
What was measured:
E. faecium = type: cell-based
Method: (§1) Minimal inhibitory concentration (MIC) assays were performed following a standard broth dilution procedure ([Wiegand et al., 2008]) in which bacteria were grown in MHB and fungal in SB overnight. The overnight bacterial suspension was adjusted to 10^6 CFU/ml in broth according to MacFarlane standard. Bacterial solutions were mixed in 96-well plates with the peptide solution to reach final concentrations of peptides ranging from 1,082 to 2 μM, including inhibition control (Indolicidin), growth control, and sterility control. Within each MIC experiment, each peptide was tested in triplicate across this concentration range and repeated on 3 independent days. Media and glassware were sterilized at 120°C for 1 h with an autoclave prior to all bioassays.

[1] = test system: Candida auris DSM 21092 (Fluconazole resistant); type: cell-based
From the text: (§2) Indolicidin (sequence: ILPWKWPWWPWRR-NH2, molecular weight: 1,906.3 g/mol) and FMOC-WWRR-NH2 (molecular weight: 924.1) were obtained from ChemPep (USA) as lyophilized powder and acetate salts with a purity >95%. Ethanol and Congo red were purchased from Sigma-Aldrich (Australia). Sodium chloride was purchased from Alfa Aesar (United Kingdom). The negative staining agent phosphotungstic acid was purchased from Proscitech (Australia). A Milipore filter system was utilized to obtain Milli-Q water. BD Difco Mueller Hinton Broth (MHB) and Sabouraud broth (SB) were purchased from Cell biosciences (Australia). Strains: E. coli NCTC 10418, P. aeruginosa ATCC 9721, E. faecalis ATCC 19433, S. aureus ATCC 25923, S. aureus ATCC BAA-1756 (methicillin resistant), Streptococcus pneumoniae ATCC 49619, Candida albicans ATCC 10231 and Candida auris DSM 21092 (Fluconazole resistant) were provided by the RMIT microbial culture collection. Bacterial strains were stored in 50% glycerol at −20 and −80°C.
as §1

[2] = test system: Streptococcus pneumoniae ATCC 49619; type: cell-based
From the text: as §2, §1

[3] = test system: Candida albicans ATCC 10231; type: cell-based
From the text: as §2, §1

P. aeruginosa ATCC 9721 = type: cell-based
From the text: as §2, §1

[4] = test system: S. aureus ATCC BAA-1756 (methicillin resistant); type: cell-based
From the text: as §2, §1

E. faecalis ATCC 19433 = type: cell-based
From the text: as §2, §1

S. aureus ATCC 25923 = type: cell-based; conditions: ATCC 25923, 1 h
From the text: as §2, §1

E. coli NCTC 10418 = type: cell-based
From the text: as §2, §1

[5] = type: physicochemical
Method: The peptides were prepared by mixing the lyophilized peptide directly with type 1 water, vortexed for a few seconds to obtain an isotropic solution and stored at 4°C–5°C in between experiments.

[6] = broth dilution in MHB, 10^6 CFU/ml, peptide 1,082 to 2 μM, triplicate on 3 independent days
[7] = broth dilution in Sabouraud broth, peptide 1,082 to 2 μM, triplicate on 3 independent days

Row | Compound | MIC E. faecium (E. faecium; 1 h) | MIC C. auris Fluconazole resistant ([1]; DSM 21092, 1 h) | MIC S. pneumoniae ([2]; ATCC 49619, 1 h) | MIC C. albicans ([3]; ATCC 10231, 1 h) | MIC P. aeruginosa (P. aeruginosa ATCC 9721; ATCC 9721, 1 h) | MIC S. aureus Methicillin resistant ([4]; ATCC BAA-1756, 1 h) | MIC E. faecalis (E. faecalis ATCC 19433; ATCC 19433, 1 h) | MIC S. aureus (S. aureus ATCC 25923) | MIC E. coli (E. coli NCTC 10418; NCTC 10418, 1 h) | Concentration easily solubilised in pure water [5] | MIC E. faecium (E. faecium; [6]) | MIC C. auris Fluconazole resistant [1, 7] | MIC S. pneumoniae [2, 6] | MIC C. albicans [3, 7] | MIC P. aeruginosa (P. aeruginosa ATCC 9721; [6]) | MIC S. aureus Methicillin resistant ([4]; second value of cell S. aureus/Methicillin resistant, broth dilution in MHB, 10^6 CFU/ml, peptide 1,082 to 2 μM, triplicate on 3 independent days) | MIC E. faecalis (E. faecalis ATCC 19433; [6]) | MIC E. coli (E. coli NCTC 10418; [6])
1 | N=C(N)NCCC[C@H](NC(=O)[C@H](CCCNC(=N)N)NC(=O)[C@H](Cc1c[nH]c2ccccc12)NC(=O)[C@H](Cc1c[nH]c2ccccc12)NC(=O)OCC1c2ccccc2-c2ccccc21)C(N)=O [Priscilicidin, Fmoc-WWRR-NH2] (Fmoc-WWRR-NH2) | 34 µM (≈ 31.4 µg/mL) | 17 µM (≈ 15.7 µg/mL) | 17 µM (≈ 15.7 µg/mL) | 8 µM (≈ 7.39 µg/mL) | 68 µM (≈ 62.8 µg/mL) | 34 µM (≈ 31.4 µg/mL) | 68 µM (≈ 62.8 µg/mL) | 17 µM (≈ 15.7 µg/mL) | 68 µM (≈ 62.8 µg/mL) | at least 10 % w/w | – | – | – | – | – | – | – | –
2 | CC[C@H](C)[C@H](N)C(=O)N[C@@H](CC(C)C)C(=O)N1CCC[C@H]1C(=O)N[C@@H](Cc1c[nH]c2ccccc12)C(=O)N[C@@H](CCCCN)C(=O)N[C@@H](Cc1c[nH]c2ccccc12)C(=O)N1CCC[C@H]1C(=O)N[C@@H](Cc1c[nH]c2ccccc12)C(=O)N[C@@H](Cc1c[nH]c2ccccc12)C(=O)N1CCC[C@H]1C(=O)N[C@@H](Cc1c[nH]c2ccccc12)C(=O)N[C@@H](CCCNC(=N)N)C(=O)N[C@@H](CCCNC(=N)N)C(N)=O [Indolicidin, reference compound] | – | – | – | – | – | – | – | – | – | – | 33 µM (≈ 62.9 µg/mL) | 16 µM (≈ 30.5 µg/mL) | 16 µM (≈ 30.5 µg/mL) | 4 µM (≈ 7.63 µg/mL) | 33 µM (≈ 62.9 µg/mL) | 33 µM (≈ 62.9 µg/mL) | 33 µM (≈ 62.9 µg/mL) | 16 µM (≈ 30.5 µg/mL)
3 | WPWRR-NH2 [Indolicidin C-terminus, WPWRR-NH2, reference compound] | – | 313 µM | – | 78 µM | 313 µM | – | – | – | 313 µM | – | – | – | – | – | – | – | – | –

Source: article PMC9881724, “Rational design of potent ultrashort antimicrobial peptides with programmable assembly into nanostructured hydrogels” (Frontiers in Chemistry, 2023)
